# Patent US20240398828A1, “HETERO-ATOM CONTAINING COMPOUNDS AND USES THEREOF” (Kumquat Biosciences Inc., priority 2021, published 2024)
# What was measured:
# PTPN2 (i.e., TC-PTP) = target: T1, PTPN2 (i.e., TC-PTP) (Homo sapiens, UniProt P17706); assay: Phosphatase activity assay (DiFMUP substrate), PTPN2; type: biochemical; conditions: compounds binned ≤1 uM or >1 uM
# T1 sequence (P17706 1-415): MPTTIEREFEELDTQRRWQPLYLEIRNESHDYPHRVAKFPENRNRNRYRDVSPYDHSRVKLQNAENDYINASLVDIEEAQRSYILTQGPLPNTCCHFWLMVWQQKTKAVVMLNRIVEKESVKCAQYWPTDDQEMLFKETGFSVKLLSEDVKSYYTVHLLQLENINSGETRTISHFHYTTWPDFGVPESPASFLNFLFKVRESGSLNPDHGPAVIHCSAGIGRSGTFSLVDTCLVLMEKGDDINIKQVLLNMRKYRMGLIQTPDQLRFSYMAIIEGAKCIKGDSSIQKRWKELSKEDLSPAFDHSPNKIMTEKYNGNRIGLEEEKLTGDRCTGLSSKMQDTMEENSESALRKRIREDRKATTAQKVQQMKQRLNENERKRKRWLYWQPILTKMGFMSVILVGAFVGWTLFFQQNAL
# Method in brief: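 First, serially diluted inhibitor is mixed about 2 minutes with enzyme in pH 7.5 HEPES/NaCl/EDTA/DTT/Tween-20 buffer. Next, DiFMUP is added at the enzyme's Km, approximately 45 μM for PTPN2. Finally, DiFMU appearance is read continuously at room temperature and rates are fitted for IC50.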
# PTPN1 (i.e., PTP1B) = target: T2, PTPN1 (i.e., PTP1B) (Homo sapiens, UniProt P18031); assay: Phosphatase activity assay (DiFMUP substrate), PTP1B; type: biochemical; conditions: compounds binned ≤1 uM or >1 uM
# T2 sequence (P18031 1-435): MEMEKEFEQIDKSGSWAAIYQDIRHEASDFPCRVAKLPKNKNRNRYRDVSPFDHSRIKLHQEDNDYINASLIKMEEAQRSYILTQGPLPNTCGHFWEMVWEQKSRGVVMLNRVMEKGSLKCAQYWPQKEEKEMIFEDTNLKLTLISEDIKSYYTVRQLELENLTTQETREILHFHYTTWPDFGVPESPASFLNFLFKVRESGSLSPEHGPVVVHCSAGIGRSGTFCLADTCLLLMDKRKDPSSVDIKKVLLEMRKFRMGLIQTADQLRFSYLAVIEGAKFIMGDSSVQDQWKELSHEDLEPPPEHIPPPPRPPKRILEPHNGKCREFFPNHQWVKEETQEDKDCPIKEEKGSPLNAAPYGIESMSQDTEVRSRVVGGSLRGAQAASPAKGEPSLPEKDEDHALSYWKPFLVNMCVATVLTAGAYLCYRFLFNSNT
# Method in brief: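 Continuous fluorogenic readout of DiFMUP dephosphorylation at room temperature, substrate set at Km for each phosphatase (about 45 μM in the PTPN2 assay). The buffer contains 1 mM DTT and 0.001% Tween-20, pH 7.5.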
"IC50 (PTPN2 (i.e., TC-PTP)) [nM]","IC50 (PTPN1 (i.e., PTP1B)) [nM]",SMILES
≤ 1000,≤ 1000,"O=C1CN(c2c(O)ccc(-c3cn(C4CCC(F)(F)CC4)cn3)c2F)S(=O)(=O)N1 [Compound 268, 5-(3-(1-(4,4-difluorocyclohexyl)-1H-imidazol-4-yl)-2-fluoro-6-hydroxyphenyl)-1,2,5-thiadiazolidin-3-one 1,1-dioxide]"
≤ 1000,≤ 1000,"COc1cccc(Cn2cc(-c3ccc(O)c(N4CC(=O)NS4(=O)=O)c3F)cn2)c1 [Compound 127, 5-(2-fluoro-6-hydroxy-3-(1-(3-methoxybenzyl)-1H-pyrazol-4-yl)phenyl)-1,2,5-thiadiazolidin-3-one 1,1-dioxide]"
≤ 1000,≤ 1000,"O=C1CN(c2c(O)ccc(-c3cn(-c4ccc(F)c(F)c4)cn3)c2F)S(=O)(=O)N1 [Compound 289, 5-(3-(1-(3,4-difluorophenyl)-1H-imidazol-4-yl)-2-fluoro-6-hydroxyphenyl)-1,2,5-thiadiazolidin-3-one 1,1-dioxide]"
≤ 1000,≤ 1000,"Cc1cc(-c2ccc(O)c(N3CC(=O)NS3(=O)=O)c2F)nn1C [Compound 454, 5-(3-(1,5-dimethyl-1H-pyrazol-3-yl)-2-fluoro-6-hydroxyphenyl)-1,2,5-thiadiazolidin-3-one 1,1-dioxide]"
≤ 1000,≤ 1000,"O=C1CN(c2c(O)ccc(C3=CCOC3)c2F)S(=O)(=O)N1 [Compound 291, 5-(3-(2,5-dihydrofuran-3-yl)-2-fluoro-6-hydroxyphenyl)-1,2,5-thiadiazolidin-3-one 1,1-dioxide]"
≤ 1000,≤ 1000,"O=C1CN(c2c(O)ccc(-c3cnn(C(F)F)c3)c2F)S(=O)(=O)N1 [Compound 273, 5-(3-(1-(difluoromethyl)-1H-pyrazol-4-yl)-2-fluoro-6-hydroxyphenyl)-1,2,5-thiadiazolidin-3-one 1,1-dioxide]"
≤ 1000,≤ 1000,"CC(C)CCn1cnc(-c2ccc(O)c(N3CC(=O)NS3(=O)=O)c2F)c1 [Compound 216, 5-(2-fluoro-6-hydroxy-3-(1-isopentyl-1H-imidazol-4-yl)phenyl)-1,2,5-thiadiazolidin-3-one 1,1-dioxide]"
> 1000,> 1000,"O=C1CN(c2c(O)ccc(-c3n[nH]c4ccccc34)c2F)S(=O)(=O)N1 [Compound 168, 5-(2-fluoro-6-hydroxy-3-(1H-indazol-3-yl)phenyl)-1,2,5-thiadiazolidin-3-one 1,1-dioxide]"
≤ 1000,≤ 1000,"O=C1CN(c2c(O)ccc(-c3cnn(C(F)(F)F)c3)c2F)S(=O)(=O)N1 [Compound 264, 5-(2-fluoro-6-hydroxy-3-(1-(trifluoromethyl)-1H-pyrazol-4-yl)phenyl)-1,2,5-thiadiazolidin-3-one 1,1-dioxide]"
≤ 1000,≤ 1000,"Cn1ccc(-c2cc(-c3ccc(O)c(N4CC(=O)NS4(=O)=O)c3F)[nH]n2)c1 [Compound 333, 5-(2-fluoro-6-hydroxy-3-(3-(1-methyl-1H-pyrrol-3-yl)-1H-pyrazol-5-yl)phenyl)-1,2,5-thiadiazolidin-3-one 1,1-dioxide]"
≤ 1000,≤ 1000,"O=C1CN(c2c(O)ccc(-c3cn(C4CCCCC4)cn3)c2F)S(=O)(=O)N1 [Compound 459, 5-(3-(1-cyclohexyl-1H-imidazol-4-yl)-2-fluoro-6-hydroxyphenyl)-1,2,5-thiadiazolidin-3-one 1,1-dioxide]"
> 1000,≤ 1000,"Cn1nc(-c2ccc(O)c(N3CC(=O)NS3(=O)=O)c2F)cc1C1CCCN1 (stereo not drawn) [Compound 468, 5-(2-fluoro-6-hydroxy-3-(1-methyl-5-(pyrrolidin-2-yl)-1H-pyrazol-3-yl)phenyl)-1,2,5-thiadiazolidin-3-one 1,1-dioxide]"
≤ 1000,≤ 1000,"Cn1cnc(-c2ccc(O)c(N3CC(=O)NS3(=O)=O)c2F)n1 [Compound 237, 5-(2-fluoro-6-hydroxy-3-(1-methyl-1H-1,2,4-triazol-3-yl)phenyl)-1,2,5-thiadiazolidin-3-one 1,1-dioxide]"
≤ 1000,≤ 1000,"O=C1CN(c2c(O)ccc(-c3cn(C(F)F)nc3F)c2F)S(=O)(=O)N1 [Compound 509, 5-(3-(1-(difluoromethyl)-3-fluoro-1H-pyrazol-4-yl)-2-fluoro-6-hydroxyphenyl)-1,2,5-thiadiazolidin-3-one 1,1-dioxide]"
≤ 1000,≤ 1000,"CN(C)c1ccc(-c2ccc(O)c(N3CC(=O)NS3(=O)=O)c2F)cn1 [Compound 208, 5-(3-(6-(dimethylamino)pyridin-3-yl)-2-fluoro-6-hydroxyphenyl)-1,2,5-thiadiazolidin-3-one 1,1-dioxide]"

# More lines, now with the values behind:
SMILES,"IC50 (PTPN2 (i.e., TC-PTP)) [nM]","IC50 (PTPN1 (i.e., PTP1B)) [nM]"
"CC(C)CCn1cc(-c2cc(F)c(O)c(N3CC(=O)NS3(=O)=O)c2)cn1 [Compound 153, 5-(3-fluoro-2-hydroxy-5-(1-isopentyl-1H-pyrazol-4-yl)phenyl)-1,2,5-thiadiazolidin-3-one 1,1-dioxide]",> 1000,≤ 1000
"O=C1CN(c2c(O)ccc(-c3cn(C4CCCCC4)nc3F)c2F)S(=O)(=O)N1 [Compound 469, 5-(3-(1-cyclohexyl-3-fluoro-1H-pyrazol-4-yl)-2-fluoro-6-hydroxyphenyl)-1,2,5-thiadiazolidin-3-one 1,1-dioxide]",≤ 1000,≤ 1000
"O=C1CN(c2c(Cl)ccc(-c3cc(C4CC4)n[nH]3)c2F)S(=O)(=O)N1 [Compound 487, 5-(6-chloro-3-(3-cyclopropyl-1H-pyrazol-5-yl)-2-fluorophenyl)-1,2,5-thiadiazolidin-3-one 1,1-dioxide]",> 1000,≤ 1000
"O=C1CN(c2c(O)ccc(-c3cnn(CCC4CCOC4)c3)c2F)S(=O)(=O)N1 (stereo not drawn) [Compound 228, 5-(2-fluoro-6-hydroxy-3-(1-(2-(tetrahydrofuran-3-yl)ethyl)-1H-pyrazol-4-yl)phenyl)-1,2,5-thiadiazolidin-3-one 1,1-dioxide]",≤ 1000,≤ 1000
"O=C1CN(c2c(O)ccc(-c3cc(C#CC4CC4)n[nH]3)c2F)S(=O)(=O)N1 [Compound 352, 5-(3-(3-(cyclopropylethynyl)-1H-pyrazol-5-yl)-2-fluoro-6-hydroxyphenyl)-1,2,5-thiadiazolidin-3-one 1,1-dioxide]",≤ 1000,≤ 1000
"O=C1CN(c2c(O)ccc(-c3cc(C(=O)NC4CC4)n[nH]3)c2F)S(=O)(=O)N1 [Compound 460, N-cyclopropyl-5-(3-(1,1-dioxido-4-oxo-1,2,5-thiadiazolidin-2-yl)-2-fluoro-4-hydroxyphenyl)-1H-pyrazole-3-carboxamide]",> 1000,≤ 1000
"COCC#Cc1cc(-c2ccc(O)c(N3CC(=O)NS3(=O)=O)c2F)[nH]n1 [Compound 274, 5-(2-fluoro-6-hydroxy-3-(3-(3-methoxyprop-1-yn-1-yl)-1H-pyrazol-5-yl)phenyl)-1,2,5-thiadiazolidin-3-one 1,1-dioxide]",≤ 1000,≤ 1000
"CC1NCC=C1c1ccc(O)c(N2CC(=O)NS2(=O)=O)c1F (stereo not drawn) [Compound 512, 5-(2-fluoro-6-hydroxy-3-(2-methyl-2,5-dihydro-1H-pyrrol-3-yl)phenyl)-1,2,5-thiadiazolidin-3-one 1,1-dioxide]",> 1000,> 1000
"NC1CC=C(c2ccc(O)c(N3CC(=O)NS3(=O)=O)c2F)C1 (stereo not drawn) [Compound 330, 5-(3-(4-aminocyclopent-1-en-1-yl)-2-fluoro-6-hydroxyphenyl)-1,2,5-thiadiazolidin-3-one 1,1-dioxide]",≤ 1000,≤ 1000
"O=C1CN(c2c(O)ccc(-c3ncc(C4CC4)[nH]3)c2F)S(=O)(=O)N1 [Compound 347, 5-(3-(5-cyclopropyl-1H-imidazol-2-yl)-2-fluoro-6-hydroxyphenyl)-1,2,5-thiadiazolidin-3-one 1,1-dioxide]",≤ 1000,≤ 1000
"O=C1CN(c2c(O)ccc(-c3cc(C4CC4C(F)F)n[nH]3)c2F)S(=O)(=O)N1 (stereo not drawn) [Compound 492, 5-(3-(3-(2-(difluoromethyl)cyclopropyl)-1H-pyrazol-5-yl)-2-fluoro-6-hydroxyphenyl)-1,2,5-thiadiazolidin-3-one 1,1-dioxide]",≤ 1000,≤ 1000
"Cc1cn(-c2ccc(O)c(N3CC(=O)NS3(=O)=O)c2F)nc1O [Compound 299, 5-(2-fluoro-6-hydroxy-3-(3-hydroxy-4-methyl-1H-pyrazol-1-yl)phenyl)-1,2,5-thiadiazolidin-3-one 1,1-dioxide]",≤ 1000,≤ 1000
